Legend:
Experiment in all cases: Eurofins kinase selectivity profile against 380 other human recombinant kinases (Table S2)
Format in all cases: biochemical
[1] = biological target: T1, 380 human recombinant protein kinases (Homo sapiens, UniProt O00443); conditions: PI3KC2α(h), read-out: Inhibition rate (%)
T1 construct: purchased Eurofins (Celle Lévescault)
How it was run: (§1)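 Off-target profiling: one compound assayed by a commercial provider over 380 recombinant human protein kinases at various concentrations.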

[2] = biological target: T2, 380 human recombinant protein kinases (Homo sapiens, UniProt O60674); conditions: JAK2(h), read-out: Inhibition rate
T2 construct: purchased Eurofins (Celle Lévescault)
How it was run: as §1

[3] = biological target: T3, 380 human recombinant protein kinases (Homo sapiens, UniProt P05129); conditions: PKCγ(h), read-out: Inhibition rate
T3 construct: purchased Eurofins (Celle Lévescault)
How it was run: as §1

[4] = biological target: T4, 380 human recombinant protein kinases (Homo sapiens, UniProt P17252); conditions: PKCα(h), read-out: Inhibition rate
T4 construct: purchased Eurofins (Celle Lévescault)
How it was run: as §1

[5] = biological target: T5, 380 human recombinant protein kinases (Homo sapiens, UniProt P42680); conditions: Tec(h) activated, read-out: Inhibition rate (%)
T5 construct: purchased Eurofins (Celle Lévescault)
T5 sequence (P42680 1-631): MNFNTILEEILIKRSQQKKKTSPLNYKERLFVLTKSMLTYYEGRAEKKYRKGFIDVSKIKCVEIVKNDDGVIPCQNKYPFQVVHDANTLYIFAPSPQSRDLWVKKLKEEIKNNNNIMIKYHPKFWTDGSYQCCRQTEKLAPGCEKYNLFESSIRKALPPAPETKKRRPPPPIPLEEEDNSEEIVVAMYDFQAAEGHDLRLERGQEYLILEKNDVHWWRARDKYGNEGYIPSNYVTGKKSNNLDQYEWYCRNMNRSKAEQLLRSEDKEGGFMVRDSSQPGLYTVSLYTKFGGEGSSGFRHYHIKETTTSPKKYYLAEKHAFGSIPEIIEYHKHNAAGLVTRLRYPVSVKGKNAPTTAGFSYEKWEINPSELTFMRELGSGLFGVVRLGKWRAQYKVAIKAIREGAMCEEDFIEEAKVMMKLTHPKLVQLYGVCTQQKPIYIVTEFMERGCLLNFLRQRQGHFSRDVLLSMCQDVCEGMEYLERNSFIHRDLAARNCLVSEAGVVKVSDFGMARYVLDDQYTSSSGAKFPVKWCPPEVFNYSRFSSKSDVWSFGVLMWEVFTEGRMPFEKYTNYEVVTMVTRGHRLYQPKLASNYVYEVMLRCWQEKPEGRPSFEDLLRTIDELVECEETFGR
How it was run: as §1

[6] = biological target: T6, 380 human recombinant protein kinases (Homo sapiens, UniProt P51956); conditions: NEK3(h), read-out: Inhibition rate
T6 construct: purchased Eurofins (Celle Lévescault)
T6 sequence (P51956 1-506): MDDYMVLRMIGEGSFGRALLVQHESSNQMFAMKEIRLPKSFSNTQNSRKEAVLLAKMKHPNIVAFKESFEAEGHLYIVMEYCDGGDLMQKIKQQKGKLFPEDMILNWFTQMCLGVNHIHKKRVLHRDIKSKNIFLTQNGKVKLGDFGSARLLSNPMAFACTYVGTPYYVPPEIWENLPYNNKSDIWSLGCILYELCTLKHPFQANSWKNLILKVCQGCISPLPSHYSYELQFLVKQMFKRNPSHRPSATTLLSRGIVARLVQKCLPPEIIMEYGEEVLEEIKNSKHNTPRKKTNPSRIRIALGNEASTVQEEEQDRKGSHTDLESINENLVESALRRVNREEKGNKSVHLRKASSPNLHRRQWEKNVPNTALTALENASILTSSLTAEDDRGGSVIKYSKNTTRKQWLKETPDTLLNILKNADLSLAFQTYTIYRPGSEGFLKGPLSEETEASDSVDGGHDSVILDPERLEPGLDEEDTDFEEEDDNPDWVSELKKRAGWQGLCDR
How it was run: as §1

[7] = biological target: T7, 380 human recombinant protein kinases (Homo sapiens, UniProt Q14680); conditions: MELK(h), read-out: Inhibition rate
T7 construct: purchased Eurofins (Celle Lévescault)
How it was run: as §1

[8] = biological target: T8, 380 human recombinant protein kinases (Homo sapiens, UniProt Q9H4A3); conditions: WNK1(h), read-out: Inhibition rate (%)
T8 construct: purchased Eurofins (Celle Lévescault)
How it was run: as §1

T1 sequence (O00443 whole entry): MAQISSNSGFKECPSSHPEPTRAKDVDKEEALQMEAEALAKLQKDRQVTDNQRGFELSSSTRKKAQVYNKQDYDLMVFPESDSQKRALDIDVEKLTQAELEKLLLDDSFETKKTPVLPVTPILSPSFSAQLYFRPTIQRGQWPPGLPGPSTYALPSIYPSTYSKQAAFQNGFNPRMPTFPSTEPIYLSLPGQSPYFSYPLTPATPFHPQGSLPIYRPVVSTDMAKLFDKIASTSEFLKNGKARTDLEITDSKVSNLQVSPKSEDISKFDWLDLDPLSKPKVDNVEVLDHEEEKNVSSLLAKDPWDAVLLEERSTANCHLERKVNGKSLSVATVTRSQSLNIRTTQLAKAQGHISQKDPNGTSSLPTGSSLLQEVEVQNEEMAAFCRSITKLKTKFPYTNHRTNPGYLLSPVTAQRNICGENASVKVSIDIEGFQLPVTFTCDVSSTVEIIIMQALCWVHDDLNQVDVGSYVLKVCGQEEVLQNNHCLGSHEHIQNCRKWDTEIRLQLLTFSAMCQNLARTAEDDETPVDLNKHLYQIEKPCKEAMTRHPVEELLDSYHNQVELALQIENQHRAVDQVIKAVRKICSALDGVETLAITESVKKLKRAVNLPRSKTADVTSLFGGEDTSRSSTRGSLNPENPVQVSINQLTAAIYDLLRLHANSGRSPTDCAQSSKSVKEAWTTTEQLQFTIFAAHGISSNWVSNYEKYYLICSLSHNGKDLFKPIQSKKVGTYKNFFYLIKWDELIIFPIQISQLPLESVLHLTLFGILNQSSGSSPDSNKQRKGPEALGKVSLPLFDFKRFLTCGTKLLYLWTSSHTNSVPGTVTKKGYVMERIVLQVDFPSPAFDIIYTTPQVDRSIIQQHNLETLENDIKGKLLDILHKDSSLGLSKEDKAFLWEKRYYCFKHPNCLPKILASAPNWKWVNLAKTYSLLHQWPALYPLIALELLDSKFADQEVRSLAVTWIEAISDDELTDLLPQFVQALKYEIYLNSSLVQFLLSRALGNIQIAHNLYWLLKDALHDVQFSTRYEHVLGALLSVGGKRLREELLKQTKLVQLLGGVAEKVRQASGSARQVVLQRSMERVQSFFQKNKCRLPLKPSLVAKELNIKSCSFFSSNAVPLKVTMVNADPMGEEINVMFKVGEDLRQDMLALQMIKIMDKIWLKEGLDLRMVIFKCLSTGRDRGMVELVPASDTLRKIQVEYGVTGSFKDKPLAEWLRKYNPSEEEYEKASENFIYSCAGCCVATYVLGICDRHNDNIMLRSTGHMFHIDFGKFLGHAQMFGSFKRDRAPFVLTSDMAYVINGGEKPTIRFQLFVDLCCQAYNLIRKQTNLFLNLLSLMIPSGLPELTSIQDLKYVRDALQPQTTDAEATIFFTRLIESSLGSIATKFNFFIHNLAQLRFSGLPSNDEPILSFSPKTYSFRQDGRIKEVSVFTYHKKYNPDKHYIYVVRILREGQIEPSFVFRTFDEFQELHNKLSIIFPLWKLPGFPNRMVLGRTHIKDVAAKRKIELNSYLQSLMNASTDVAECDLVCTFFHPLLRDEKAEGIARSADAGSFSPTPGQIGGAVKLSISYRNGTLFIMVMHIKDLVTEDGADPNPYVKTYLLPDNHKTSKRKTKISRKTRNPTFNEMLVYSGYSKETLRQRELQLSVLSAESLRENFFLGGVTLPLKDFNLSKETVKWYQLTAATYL
T2 sequence (O60674 whole entry): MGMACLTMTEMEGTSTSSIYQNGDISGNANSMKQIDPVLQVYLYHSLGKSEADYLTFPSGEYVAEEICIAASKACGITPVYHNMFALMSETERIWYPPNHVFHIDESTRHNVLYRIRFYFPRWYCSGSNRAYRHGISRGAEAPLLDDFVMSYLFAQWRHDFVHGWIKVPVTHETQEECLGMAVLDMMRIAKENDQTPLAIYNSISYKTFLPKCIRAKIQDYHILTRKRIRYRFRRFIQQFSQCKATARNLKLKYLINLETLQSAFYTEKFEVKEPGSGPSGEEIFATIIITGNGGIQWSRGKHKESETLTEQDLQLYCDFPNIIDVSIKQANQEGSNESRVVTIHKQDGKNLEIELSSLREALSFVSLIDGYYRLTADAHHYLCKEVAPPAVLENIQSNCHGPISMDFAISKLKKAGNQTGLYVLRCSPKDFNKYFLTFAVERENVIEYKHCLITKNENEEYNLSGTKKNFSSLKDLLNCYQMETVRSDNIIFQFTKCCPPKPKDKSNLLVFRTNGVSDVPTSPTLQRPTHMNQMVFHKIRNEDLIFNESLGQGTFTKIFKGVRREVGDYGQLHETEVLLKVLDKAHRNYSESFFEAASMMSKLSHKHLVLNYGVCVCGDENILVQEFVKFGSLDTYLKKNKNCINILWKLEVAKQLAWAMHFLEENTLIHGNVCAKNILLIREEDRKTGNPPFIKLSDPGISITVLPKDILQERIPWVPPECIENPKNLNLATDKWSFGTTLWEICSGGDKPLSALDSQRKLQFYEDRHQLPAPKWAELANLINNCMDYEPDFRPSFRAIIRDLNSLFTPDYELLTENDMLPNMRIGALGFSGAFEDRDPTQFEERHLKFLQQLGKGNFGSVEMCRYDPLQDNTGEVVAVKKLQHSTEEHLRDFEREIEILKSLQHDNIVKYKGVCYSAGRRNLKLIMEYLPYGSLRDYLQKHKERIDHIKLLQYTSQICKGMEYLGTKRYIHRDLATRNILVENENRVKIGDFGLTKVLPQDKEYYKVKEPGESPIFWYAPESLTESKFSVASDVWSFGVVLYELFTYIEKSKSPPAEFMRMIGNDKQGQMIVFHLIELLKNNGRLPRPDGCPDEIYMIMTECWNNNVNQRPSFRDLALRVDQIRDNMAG
T7 sequence (Q14680 whole entry): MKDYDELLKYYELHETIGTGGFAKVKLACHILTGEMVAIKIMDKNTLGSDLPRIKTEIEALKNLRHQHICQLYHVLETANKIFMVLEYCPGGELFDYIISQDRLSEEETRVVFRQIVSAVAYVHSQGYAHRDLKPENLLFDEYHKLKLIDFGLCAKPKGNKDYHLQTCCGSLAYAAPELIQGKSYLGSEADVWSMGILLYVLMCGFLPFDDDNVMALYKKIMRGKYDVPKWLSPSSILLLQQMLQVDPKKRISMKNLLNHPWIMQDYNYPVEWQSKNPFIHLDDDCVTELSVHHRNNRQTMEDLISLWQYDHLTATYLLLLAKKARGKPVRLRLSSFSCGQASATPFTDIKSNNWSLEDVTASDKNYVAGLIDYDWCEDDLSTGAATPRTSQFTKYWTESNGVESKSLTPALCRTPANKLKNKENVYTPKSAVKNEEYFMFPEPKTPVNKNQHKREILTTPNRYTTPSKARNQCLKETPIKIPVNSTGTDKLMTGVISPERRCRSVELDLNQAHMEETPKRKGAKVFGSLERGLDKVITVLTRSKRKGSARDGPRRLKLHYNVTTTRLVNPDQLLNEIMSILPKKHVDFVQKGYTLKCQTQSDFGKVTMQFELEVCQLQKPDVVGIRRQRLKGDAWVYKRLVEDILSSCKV

In the case of `C=CC(=O)Nc1cc(-c2cc(-c3cc4c([nH]3)CCNC4=O)ccn2)ccc1OC(F)(F)F` [compound 11], the inhibition at 0.01 µM ([1]; 10 nM) is reported as -4%, the inhibition at 0.1 µM ([1]; 100 nM) is reported as -2% and the inhibition at 1 µM ([1]; 1000 nM) is reported as -5%. The inhibition at 0.01 µM ([2]; 10 nM) was -6%, the inhibition at 0.1 µM ([2]; 100 nM) was -10% and the inhibition at 1 µM ([2]; 1000 nM) was -8%. It also gave an inhibition at 0.01 µM ([3]; 10 nM) of 7%, an inhibition at 0.1 µM ([3]; 100 nM) of 5% and an inhibition at 1 µM ([3]; 1000 nM) of 14%. It also gave an inhibition at 0.01 µM ([4]; 10 nM) of 5%, an inhibition at 0.1 µM ([4]; 100 nM) of 14% and an inhibition at 1 µM ([4]; 1000 nM) of 6%. For the same molecule, the inhibition at 0.01 µM ([5]; 10 nM) was 8%, the inhibition at 0.1 µM ([5]; 100 nM) was 11% and the inhibition at 1 µM ([5]; 1000 nM) was 17%. For the same molecule, the inhibition at 0.01 µM ([6]; 10 nM) was -6%, the inhibition at 0.1 µM ([6]; 100 nM) was 0% and the inhibition at 1 µM ([6]; 1000 nM) was -1%. For the same molecule, the inhibition at 0.01 µM ([7]; 10 nM) was -7%, the inhibition at 0.1 µM ([7]; 100 nM) was 5% and the inhibition at 1 µM ([7]; 1000 nM) was 30%. For the same molecule, the inhibition at 0.01 µM ([8]; 10 nM) was 6%, the inhibition at 0.1 µM ([8]; 100 nM) was 2% and the inhibition at 1 µM ([8]; 1000 nM) was 4%.

Source: article PMC11233931, “Remodeling tumor‐associated macrophage for anti‐cancer effects by rational design of irreversible inhibition of mitogen‐activated protein kinase‐activated protein kinase 2” (MedComm, 2024)
